According to PMC7101356, “Cross-site and cross-platform variability of automated patch clamp assessments of drug effects on human cardiac currents in recombinant cells” (Scientific Reports, 2020):

Tests used:
peak hNav1.5 = molecular target: T1, peak hNav1.5 (Homo sapiens, UniProt Q14524); assay: Automated patch clamp, peak hNav1.5 current block; format: cell-based
T1 construct: expressed in transfected cells; host or cells: HEK293 or CHO, depending on site

hERG = hERG (Homo sapiens, UniProt Q12809); assay: Automated patch clamp, hERG current block, Milnes protocol (site s06); format: cell-based; design: expressed in transfected cells; host or cells: HEK293 or CHO, depending on site (site s06, Milnes protocol: HEK293); settings: s06_p4, HEK293, 22–24 °C
Chain of hERG (Q12809 whole entry): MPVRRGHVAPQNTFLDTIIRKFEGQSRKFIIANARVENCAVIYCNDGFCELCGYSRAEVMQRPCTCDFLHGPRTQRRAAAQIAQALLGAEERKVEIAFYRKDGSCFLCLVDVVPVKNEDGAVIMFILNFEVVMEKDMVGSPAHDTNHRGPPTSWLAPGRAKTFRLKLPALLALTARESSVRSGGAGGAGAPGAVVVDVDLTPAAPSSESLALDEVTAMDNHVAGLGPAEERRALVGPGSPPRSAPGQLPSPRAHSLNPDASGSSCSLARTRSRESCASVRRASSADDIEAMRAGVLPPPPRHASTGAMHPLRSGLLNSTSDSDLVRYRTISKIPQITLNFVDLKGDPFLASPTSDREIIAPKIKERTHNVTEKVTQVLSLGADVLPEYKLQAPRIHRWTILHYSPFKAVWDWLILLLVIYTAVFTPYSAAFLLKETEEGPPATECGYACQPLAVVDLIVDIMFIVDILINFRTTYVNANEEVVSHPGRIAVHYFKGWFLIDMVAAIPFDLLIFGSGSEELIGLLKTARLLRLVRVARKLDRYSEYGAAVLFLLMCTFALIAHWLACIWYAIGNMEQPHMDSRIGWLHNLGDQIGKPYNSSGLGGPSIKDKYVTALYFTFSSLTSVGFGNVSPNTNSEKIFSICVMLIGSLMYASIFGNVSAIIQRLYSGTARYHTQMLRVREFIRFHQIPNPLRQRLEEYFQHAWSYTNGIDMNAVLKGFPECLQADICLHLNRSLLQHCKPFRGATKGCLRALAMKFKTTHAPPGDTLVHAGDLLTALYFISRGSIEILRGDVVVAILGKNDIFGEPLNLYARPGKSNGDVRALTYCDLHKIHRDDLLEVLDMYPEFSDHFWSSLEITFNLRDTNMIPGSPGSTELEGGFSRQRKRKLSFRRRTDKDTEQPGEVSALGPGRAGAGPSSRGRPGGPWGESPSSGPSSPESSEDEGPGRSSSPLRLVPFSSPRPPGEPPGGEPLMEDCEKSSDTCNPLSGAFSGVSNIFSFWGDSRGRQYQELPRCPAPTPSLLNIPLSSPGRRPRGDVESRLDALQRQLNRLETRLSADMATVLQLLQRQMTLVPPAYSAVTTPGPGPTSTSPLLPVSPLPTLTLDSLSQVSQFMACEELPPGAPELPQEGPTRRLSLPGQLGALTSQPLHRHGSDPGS
From the text: Thus, a single test site (s06) elicited hERG current with a 10-s depolarizing voltage step from −80 mV to 0 mV every 25 s (Milnes protocol, see Milnes et al.[14]).
The steady state current at each concentration was used to determine the concentration-response relationships. Mean concentration-response data were fitted to a standard sigmoidal four-parameter logistic equation (GraphPad Prism 7; GraphPad Inc., La Jolla, CA) of the form: Y=Bottom+(Top−Bottom)/(1+10^∧(LogIC50−X)∗HillSlope) where Y is the current inhibition (in % of pre-drug control), X is the logarithm of drug concentration, and IC50 is the drug concentration producing half-maximal current inhibition. Curve fitting was performed using the following constraints: Top = 100%, Bottom = 0%, Hill Slope <2. No curve fitting was performed in cases with an obvious lack of a concentration-dependent current inhibition and/or small effect size (approximately ≤20%).
This protocol consists of a set of two 25-s-long pulse protocols, with one protocol (“Pulse”) containing a prolonged 10-s-long depolarizing test pulse (0 mV) followed by a 14-s-long return pulse to −80 mV, and a second protocol “No-Pulse” consisting of the same pulse structure without the depolarizing test pulse[18].

hCav1.2 = hCav1.2 (Homo sapiens, UniProt Q13936); assay: Automated patch clamp, hCav1.2 current block; settings: for IC50: log IC50, half-maximal inhibitory concentration
Chain of hCav1.2 (Q13936 whole entry): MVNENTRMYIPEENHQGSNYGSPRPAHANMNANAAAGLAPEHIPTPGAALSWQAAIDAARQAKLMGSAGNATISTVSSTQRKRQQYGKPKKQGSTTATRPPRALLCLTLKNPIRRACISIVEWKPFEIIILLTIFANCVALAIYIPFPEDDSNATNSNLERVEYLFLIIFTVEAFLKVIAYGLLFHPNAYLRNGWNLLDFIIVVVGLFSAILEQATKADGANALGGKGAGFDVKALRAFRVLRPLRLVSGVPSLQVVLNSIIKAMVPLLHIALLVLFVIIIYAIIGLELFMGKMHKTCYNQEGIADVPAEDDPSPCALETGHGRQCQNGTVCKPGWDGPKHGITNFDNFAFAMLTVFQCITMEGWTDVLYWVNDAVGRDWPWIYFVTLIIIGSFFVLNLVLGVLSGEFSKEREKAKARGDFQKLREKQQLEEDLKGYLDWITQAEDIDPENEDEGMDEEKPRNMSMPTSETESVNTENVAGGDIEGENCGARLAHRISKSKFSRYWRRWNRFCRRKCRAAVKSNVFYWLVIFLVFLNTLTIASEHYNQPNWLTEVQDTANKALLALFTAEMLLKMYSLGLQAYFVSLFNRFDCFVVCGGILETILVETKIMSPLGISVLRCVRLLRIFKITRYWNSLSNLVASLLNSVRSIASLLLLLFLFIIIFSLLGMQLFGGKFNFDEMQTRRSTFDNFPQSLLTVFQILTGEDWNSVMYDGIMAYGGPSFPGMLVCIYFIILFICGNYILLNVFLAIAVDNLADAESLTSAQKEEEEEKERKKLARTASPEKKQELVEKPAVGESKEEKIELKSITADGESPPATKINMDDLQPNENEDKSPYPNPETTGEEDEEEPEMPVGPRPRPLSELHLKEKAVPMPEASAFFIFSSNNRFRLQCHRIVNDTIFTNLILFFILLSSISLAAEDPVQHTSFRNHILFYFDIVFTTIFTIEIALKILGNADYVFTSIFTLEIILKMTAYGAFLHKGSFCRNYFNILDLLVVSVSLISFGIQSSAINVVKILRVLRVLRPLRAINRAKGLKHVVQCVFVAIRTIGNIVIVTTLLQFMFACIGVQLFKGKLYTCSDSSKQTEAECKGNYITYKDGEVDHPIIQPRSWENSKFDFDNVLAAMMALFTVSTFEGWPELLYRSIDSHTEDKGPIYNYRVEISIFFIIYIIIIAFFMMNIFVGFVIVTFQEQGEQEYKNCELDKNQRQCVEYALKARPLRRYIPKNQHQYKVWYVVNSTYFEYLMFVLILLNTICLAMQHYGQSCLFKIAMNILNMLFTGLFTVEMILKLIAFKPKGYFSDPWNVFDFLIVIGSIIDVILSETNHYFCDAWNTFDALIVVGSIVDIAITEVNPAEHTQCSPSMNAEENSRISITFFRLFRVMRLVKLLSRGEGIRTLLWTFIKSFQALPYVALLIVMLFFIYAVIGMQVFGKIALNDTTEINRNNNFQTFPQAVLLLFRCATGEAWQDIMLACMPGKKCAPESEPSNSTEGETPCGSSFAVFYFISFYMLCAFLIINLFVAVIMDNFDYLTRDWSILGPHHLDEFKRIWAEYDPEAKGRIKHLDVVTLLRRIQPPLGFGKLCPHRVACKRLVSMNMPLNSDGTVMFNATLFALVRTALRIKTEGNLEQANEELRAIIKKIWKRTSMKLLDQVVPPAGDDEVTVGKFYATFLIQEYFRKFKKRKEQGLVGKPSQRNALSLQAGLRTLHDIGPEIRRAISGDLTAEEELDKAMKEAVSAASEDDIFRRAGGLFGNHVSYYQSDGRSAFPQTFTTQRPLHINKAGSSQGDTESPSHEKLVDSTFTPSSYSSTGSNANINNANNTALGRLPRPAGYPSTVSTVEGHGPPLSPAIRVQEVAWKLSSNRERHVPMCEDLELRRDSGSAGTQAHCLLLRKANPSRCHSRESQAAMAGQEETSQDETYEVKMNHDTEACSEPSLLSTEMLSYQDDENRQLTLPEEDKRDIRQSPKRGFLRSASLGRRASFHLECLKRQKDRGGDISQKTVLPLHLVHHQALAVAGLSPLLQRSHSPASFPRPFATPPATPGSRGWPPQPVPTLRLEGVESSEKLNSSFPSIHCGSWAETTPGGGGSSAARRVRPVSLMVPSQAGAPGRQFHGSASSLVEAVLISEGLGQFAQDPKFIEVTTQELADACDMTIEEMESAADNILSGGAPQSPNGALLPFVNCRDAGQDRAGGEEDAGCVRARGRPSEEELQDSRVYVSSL
Chain of hCav1.2 (Q08289 whole entry partner): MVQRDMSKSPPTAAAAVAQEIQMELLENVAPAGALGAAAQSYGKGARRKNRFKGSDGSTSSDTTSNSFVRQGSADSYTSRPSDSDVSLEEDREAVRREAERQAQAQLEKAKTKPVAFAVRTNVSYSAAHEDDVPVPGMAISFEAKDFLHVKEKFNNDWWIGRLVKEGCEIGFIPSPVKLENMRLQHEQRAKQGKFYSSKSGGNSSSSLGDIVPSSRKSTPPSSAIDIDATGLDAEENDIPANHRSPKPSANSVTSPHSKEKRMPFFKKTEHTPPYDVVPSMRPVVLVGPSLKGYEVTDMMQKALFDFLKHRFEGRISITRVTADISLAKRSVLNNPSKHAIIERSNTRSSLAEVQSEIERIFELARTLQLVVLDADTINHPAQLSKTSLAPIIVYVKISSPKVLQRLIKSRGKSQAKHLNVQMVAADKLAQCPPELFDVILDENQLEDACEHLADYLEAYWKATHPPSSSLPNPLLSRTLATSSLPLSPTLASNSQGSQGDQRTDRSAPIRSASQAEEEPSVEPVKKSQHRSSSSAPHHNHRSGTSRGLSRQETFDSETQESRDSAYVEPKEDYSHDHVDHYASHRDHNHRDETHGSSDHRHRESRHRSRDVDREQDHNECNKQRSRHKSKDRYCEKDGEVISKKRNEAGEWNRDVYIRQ
Chain of hCav1.2 (P54289 25-956 partner limits assumed): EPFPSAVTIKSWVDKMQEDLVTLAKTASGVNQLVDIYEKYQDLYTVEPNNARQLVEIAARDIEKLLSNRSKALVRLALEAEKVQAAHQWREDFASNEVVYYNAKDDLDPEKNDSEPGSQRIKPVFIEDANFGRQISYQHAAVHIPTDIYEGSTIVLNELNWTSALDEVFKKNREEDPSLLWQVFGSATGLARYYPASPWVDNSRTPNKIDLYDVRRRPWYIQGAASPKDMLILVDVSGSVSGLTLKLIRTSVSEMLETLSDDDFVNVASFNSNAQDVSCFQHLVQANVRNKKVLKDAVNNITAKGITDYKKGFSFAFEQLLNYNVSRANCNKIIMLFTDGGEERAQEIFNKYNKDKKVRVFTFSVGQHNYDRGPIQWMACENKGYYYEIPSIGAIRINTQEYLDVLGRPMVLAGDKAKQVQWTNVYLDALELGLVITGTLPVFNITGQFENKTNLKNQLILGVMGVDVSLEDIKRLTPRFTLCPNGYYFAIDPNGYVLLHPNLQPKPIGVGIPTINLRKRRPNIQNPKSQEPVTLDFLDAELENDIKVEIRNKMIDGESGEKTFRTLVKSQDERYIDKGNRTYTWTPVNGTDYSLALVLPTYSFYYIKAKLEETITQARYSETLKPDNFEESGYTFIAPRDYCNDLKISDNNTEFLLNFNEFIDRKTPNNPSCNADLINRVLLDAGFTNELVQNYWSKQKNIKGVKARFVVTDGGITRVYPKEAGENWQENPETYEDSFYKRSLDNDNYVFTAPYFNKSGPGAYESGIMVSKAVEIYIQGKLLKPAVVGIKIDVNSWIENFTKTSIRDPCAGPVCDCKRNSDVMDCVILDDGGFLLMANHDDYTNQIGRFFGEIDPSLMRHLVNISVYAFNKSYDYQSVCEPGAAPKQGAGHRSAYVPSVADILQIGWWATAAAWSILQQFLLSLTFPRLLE
Chain of hCav1.2 (P54289 957-1103 partner limits assumed): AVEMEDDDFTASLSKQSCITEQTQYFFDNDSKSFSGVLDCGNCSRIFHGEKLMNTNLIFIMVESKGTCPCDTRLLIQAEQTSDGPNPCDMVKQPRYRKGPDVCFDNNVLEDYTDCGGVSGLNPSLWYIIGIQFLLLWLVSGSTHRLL

Cc1cccc(C)c1OCC(C)N (stereo not shown) [mex, mexiletine]
Peak hNav1.5 Na+ current inhibition, Mean (peak hNav1.5; site_platform s01_p1, 1.00E-06 mol/L): 57.9% | nH (Hill slope), peak hNav1.5 Na+ current inhibition (peak hNav1.5; site_platform s02_p2): 0.99 | Peak hNav1.5 Na+ current inhibition, Mean (peak hNav1.5; site_platform s02_p2, 1.00E-04 mol/L): 54.9% | Peak hNav1.5 Na+ current inhibition, Mean (peak hNav1.5; site_platform s02_p2, 1.00E-06 mol/L): -1.5% | nH (Hill slope), peak hNav1.5 Na+ current inhibition (peak hNav1.5; site_platform s04_p3): 0.51 | Peak hNav1.5 Na+ current inhibition, Mean (peak hNav1.5; site_platform s04_p3, 1.00E-04 mol/L): 47.7% | Peak hNav1.5 Na+ current inhibition, Mean (peak hNav1.5; site_platform s04_p3, 1.00E-06 mol/L): 8.8% | nH (Hill slope), peak hNav1.5 Na+ current inhibition (peak hNav1.5; site_platform s06_p4): 1.28 | Peak hNav1.5 Na+ current inhibition, Mean (peak hNav1.5; site_platform s06_p4, 1.00E-04 mol/L): 62.4% | Peak hNav1.5 Na+ current inhibition, Mean (peak hNav1.5; site_platform s06_p4, 1.00E-06 mol/L): 2.4% | nH (Hill slope), peak hNav1.5 Na+ current inhibition (peak hNav1.5; site_platform s07_p6): 0.86 | Peak hNav1.5 Na+ current inhibition, Mean (peak hNav1.5; site_platform s07_p6, 1.00E-04 mol/L): 79.8% | Peak hNav1.5 Na+ current inhibition, Mean (peak hNav1.5; site_platform s07_p6, 1.00E-06 mol/L): 7.1% | nH, Hill slope, peak hNav1.5 inhibition (peak hNav1.5; site_platform s10_p3): 0.84 | Peak hNav1.5 Na+ current inhibition, Mean (peak hNav1.5; site_platform s10_p3, 1.00E-04 mol/L): 53.9% | Peak hNav1.5 Na+ current inhibition, Mean (peak hNav1.5; site_platform s10_p3, 1.00E-06 mol/L): 6.6% | nH, Hill slope, peak hNav1.5 inhibition (peak hNav1.5; site_platform s11_p1): 0.56 | Peak hNav1.5 Na+ current inhibition, Mean (peak hNav1.5; site_platform s11_p1, 1.00E-04 mol/L): 50.8% | Peak hNav1.5 Na+ current inhibition, Mean (peak hNav1.5; site_platform s11_p1, 1.00E-06 mol/L): 10.7% | nH, Hill slope, peak hNav1.5 inhibition (peak hNav1.5; site_platform s12_p2): 0.72 | Peak hNav1.5 Na+ current inhibition, Mean (peak hNav1.5; site_platform s12_p2, 1.00E-04 mol/L): 58.7% | Peak hNav1.5 Na+ current inhibition, Mean (peak hNav1.5; site_platform s12_p2, 1.00E-06 mol/L): 4.9% | nH, Hill slope, peak hNav1.5 inhibition (peak hNav1.5; site_platform s13_p2): 0.89 | Peak hNav1.5 Na+ current inhibition, Mean (peak hNav1.5; site_platform s13_p2, 1.00E-04 mol/L): 50.5% | Peak hNav1.5 Na+ current inhibition, Mean (peak hNav1.5; site_platform s13_p2, 1.00E-06 mol/L): 2.3% | nH, Hill slope, peak hNav1.5 inhibition (peak hNav1.5; site_platform s14_p1): 0.84 | Peak hNav1.5 Na+ current inhibition, Mean (peak hNav1.5; site_platform s14_p1, 1.00E-04 mol/L): 65.7% | Peak hNav1.5 Na+ current inhibition, Mean (peak hNav1.5; site_platform s14_p1, 1.00E-06 mol/L): 6.3% | nH, Hill slope, peak hNav1.5 inhibition (peak hNav1.5; site_platform s15_p1): 0.56 | Peak hNav1.5 Na+ current inhibition, Mean (peak hNav1.5; site_platform s15_p1, 1.00E-04 mol/L): 88.2% | Peak hNav1.5 Na+ current inhibition, Mean (peak hNav1.5; site_platform s15_p1, 1.00E-06 mol/L): 30.6% | nH, Hill slope, peak hNav1.5 inhibition (peak hNav1.5; site_platform s16_p3): 0.69 | Peak hNav1.5 Na+ current inhibition, Mean (peak hNav1.5; site_platform s16_p3, 1.00E-04 mol/L): 43.0% | Peak hNav1.5 Na+ current inhibition, Mean (peak hNav1.5; site_platform s16_p3, 1.00E-06 mol/L): 5.6% | nH, Hill slope, peak hNav1.5 inhibition (peak hNav1.5; site_platform s17_p1): 0.83 | Peak hNav1.5 Na+ current inhibition, Mean (peak hNav1.5; site_platform s17_p1, 1.00E-04 mol/L): 75.6% | Peak hNav1.5 Na+ current inhibition, Mean (peak hNav1.5; site_platform s17_p1, 1.00E-06 mol/L): 10.3% | nH, Hill slope, peak hNav1.5 inhibition (peak hNav1.5; site_platform s18_p1): 0.98 | Peak hNav1.5 Na+ current inhibition, Mean (peak hNav1.5; site_platform s18_p1, 1.00E-04 mol/L): 83.9% | Peak hNav1.5 Na+ current inhibition, Mean (peak hNav1.5; site_platform s18_p1, 1.00E-06 mol/L): 6.1% | nH, Hill slope, peak hNav1.5 inhibition (peak hNav1.5; site_platform s19_p3): 0.51 | Peak hNav1.5 Na+ current inhibition, Mean (peak hNav1.5; site_platform s19_p3, 1.00E-04 mol/L): 55.6% | Peak hNav1.5 Na+ current inhibition, Mean (peak hNav1.5; site_platform s19_p3, 1.00E-06 mol/L): 12.4% | hERG K+ current nH, Hill slope (hERG): 1.02 | hERG K+ current inhibition, Mean, at maximal concentration (hERG; max conc [mol/L]: bep 3.00E-07, cpz 3.00E-06, cis 3.00E-07, dil 1.00E-04, dof 1.00E-07, mex 1.00E-04, ond 1.00E-05, qui 1.00E-05, ran 1.00E-04, sot 3.00E-04, ter 3.00E-07, ver 1.00E-06): 71.6% | hERG K+ current inhibition, Mean, at minimal concentration (hERG; min conc [mol/L]: bep 1.00E-08, cpz 1.00E-07, cis 1.00E-09, dil 3.00E-06, dof 1.00E-09, mex 1.00E-06, ond 3.00E-07, qui 1.00E-07, ran 3.00E-06, sot 1.00E-05, ter 1.00E-08, ver 3.00E-08): -3.4% | IC50 (hERG; read-out: hERG K+ current log IC50 (converted)): 37.2 µM | IC50 (hCav1.2; site s01_p1): 372 µM | IC50 (hCav1.2; site s06_p4): 178 µM | IC50 (hCav1.2; site s14_p1): 234 µM | IC50 (hCav1.2; site s16_p3): 251 µM | IC50 (hCav1.2; site s18_p1): 162 µM | nH, Hill slope (hCav1.2; site s01_p1): 0.60 | Peak hCav1.2 Ca2+ current inhibition, Mean (hCav1.2; site s01_p1, 1.00E-04 mol/L): 34.0% | Peak hCav1.2 Ca2+ current inhibition, Mean (hCav1.2; site s01_p1, 1.00E-06 mol/L): 10.1% | log IC50, half-maximal inhibitory concentration (hCav1.2; site s02_p2, corrected for rundown): no inh. | Peak hCav1.2 Ca2+ current inhibition, Mean (hCav1.2; site s02_p2, corrected for rundown, 1.00E-04 mol/L): 1.8% | Peak hCav1.2 Ca2+ current inhibition, Mean (hCav1.2; site s02_p2, corrected for rundown, 1.00E-06 mol/L): -11.1% | nH, Hill slope (hCav1.2; site s06_p4): 0.87 | Peak hCav1.2 Ca2+ current inhibition, Mean (hCav1.2; site s06_p4, 1.00E-04 mol/L): 39.1% | Peak hCav1.2 Ca2+ current inhibition, Mean (hCav1.2; site s06_p4, 1.00E-06 mol/L): 0.5% | log IC50, half-maximal inhibitory concentration (hCav1.2; site s11_p1): no inh. | Peak hCav1.2 Ca2+ current inhibition, Mean (hCav1.2; site s11_p1, 1.00E-04 mol/L): 22.9% | Peak hCav1.2 Ca2+ current inhibition, Mean (hCav1.2; site s11_p1, 1.00E-06 mol/L): 12.9% | nH, Hill slope (hCav1.2; site s14_p1): 2.00 | Peak hCav1.2 Ca2+ current inhibition, Mean (hCav1.2; site s14_p1, 1.00E-04 mol/L): 16.2% | Peak hCav1.2 Ca2+ current inhibition, Mean (hCav1.2; site s14_p1, 1.00E-06 mol/L): -17.7% | nH, Hill slope (hCav1.2; site s16_p3): 0.80 | Peak hCav1.2 Ca2+ current inhibition, Mean (hCav1.2; site s16_p3, 1.00E-04 mol/L): 31.7% | Peak hCav1.2 Ca2+ current inhibition, Mean (hCav1.2; site s16_p3, 1.00E-06 mol/L): -0.3% | nH, Hill slope (hCav1.2; site s18_p1): 1.07 | Peak hCav1.2 Ca2+ current inhibition, Mean (hCav1.2; site s18_p1, 1.00E-04 mol/L): 35.7% | Peak hCav1.2 Ca2+ current inhibition, Mean (hCav1.2; site s18_p1, 1.00E-06 mol/L): 2.3%
